Data: patent US8552175B2, “Sulfur transfer reagents for oligonucleotide synthesis” (A.M. Chemicals, Inc., priority 2009, dated 2013)

Experiments:
[1] = test system: solid support-bound internucleosidic phosphite triesters; assay: Sulfur transfer in solid phase synthesis of oligonucleotide phosphorothioates, HPLC and ES MS; conditions: for contact time required for complete sulfur transfer: optimized conditions

Row | Compound | contact time required for complete sulfur transfer ([1]; 0.02 M solution of reagent) [min] | contact time required for complete sulfur transfer ([1]; 0.05 M solution of reagent) [min] | contact time required for complete sulfur transfer ([1]; 0.1 M solution of reagent) [min] | performance in oligonucleotide synthesis compared with compound 1 ([1]; in words) | melting point [°C]
1 | 5-Phenyl-3H-1,2,4-dithiazol-3-thione [Compound 7] | 2 | 1 | 0.5 | substantially similar performance | 
2 | S=c1ncss1 [Compound 6, 3H-1,2,4-dithiazol-3-thione] |  |  |  |  | 73 to 75
